Paper PMC8294567, “Associations between plasma nucleoside reverse transcriptase inhibitors concentrations and cognitive function in people with HIV” (PLoS ONE, 2021)
Structures can show the parent of a compound that is named as a salt.

Tested on: not given
Experiment: not given
Conditions: human, in vivo
Protocol: (§1) NRTI concentrations were measured by a validated method on ultra-performance liquid chromatography (ACQUITY, Waters) in plasma samples collected at study baseline. Briefly, 200 μL of plasma was subjected to solid phase extraction (MCX cartridge, Waters) and the elutants were dried under nitrogen stream before being re-constituted in 50 μL of water. The NRTI drugs were separated using a C18 BEH column (1.7 μm, 2.1 mm x 100 mm, Waters). For each of the four NRTIs, population PK models were determined using nonlinear mixed effects (NONMEM v.7.3) using the $PRIOR subroutine to stabilise the models and aid partition of inter-individual and residual variabilities. The impact of covariates on antiretroviral apparent oral clearance was evaluated. […] Model fit was assessed by statistical and graphical methods. A decrease in the minimal objective function value (-2*log likelihood) of at least 3.84 units (corresponding to a p-value<0.05) was required to accept a model with an extra parameter. Once significant covariates were incorporated, a backwards elimination process was performed and biologically plausible covariates generating an increase in the objective function value of at least 10.83 (i.e. p<0.001) units were retained.
Continuous variables, including PK parameters and cognitive z-scores, were summarized using the median and the interquartile range (IQR); categorical variables were described using frequencies and percentages. Associations between NRTI PK parameters and cognitive z-scores were assessed using a series of rank regression models, one for each combination of cognitive domain/global score, NRTI and PK parameter (7x4x3 models). In each model, the cognitive score was considered as the dependent variable and the NRTI PK parameter as an independent variable in addition to the following confounders, selected a priori: age, gender, ethnicity, education, recreational drug use, alcohol consumption, glomerular filtration rate (estimated using the Chronic Kidney Disease Epidemiology Collaboration equation [15]), depressive symptoms (assessed via the Patient Health Questionnaire-9 [16]) use of ritonavir/cobicistat boosted protease inhibitor and use of efavirenz. […] Multivariable analyses were conducted as follows, in order to investigate associations of each PK parameter for one NRTI, independently of the concentration of the other NRTI in the regimen. […] All analyses were performed using the statistical software SAS v9.4 with p-values <0.05 considered as statistically significant.

Eta^2, Age vs AUC0-24 | Eta^2, Age vs Cmax | Eta^2, Age vs Ctrough | Eta^2, Alcohol consumption vs AUC0-24 | Eta^2, Alcohol consumption vs Cmax | Eta^2, Alcohol consumption vs Ctrough | Eta^2, BMI vs AUC0-24 | Eta^2, BMI vs Cmax | Eta^2, BMI vs Ctrough | Eta^2, Education vs AUC0-24 | Compound
0.005 | 0.017 | 0.069 | 0.002 | 0.000 | 0.008 | 0.010 | 0.014 | 0.000 | 0.071 | Nc1nc(NC2CC2)c2ncn([C@H]3C=C[C@@H](CO)C3)c2n1 [ABC, abacavir]
– | – | 0.101 | – | – | 0.005 | – | – | 0.002 | – | Nc1ccn([C@@H]2CS[C@H](CO)O2)c(=O)n1 [3TC, lamivudine]
0.070 | 0.028 | 0.075 | 0.002 | 0.005 | 0.001 | 0.095 | 0.271 | 0.013 | 0.016 | CC(C)OC(=O)OCOP(=O)(CO[C@H](C)Cn1cnc2c(N)ncnc21)OCOC(=O)OC(C)C [TDF, tenofovir disoproxil fumarate]
0.157 | 0.189 | 0.099 | 0.000 | 0.000 | 0.001 | 0.000 | 0.000 | 0.000 | 0.013 | Nc1nc(=O)n([C@@H]2CS[C@H](CO)O2)cc1F [FTC, emtricitabine]

Same assay, conditions: human, in vivo

Eta^2, Education vs Cmax | Eta^2, Education vs Ctrough | Eta^2, Ethnicity vs AUC0-24 | Eta^2, Ethnicity vs Cmax | Eta^2, Ethnicity vs Ctrough | Eta^2, Gender vs AUC0-24 | Eta^2, Gender vs Cmax | Eta^2, Gender vs Ctrough | Eta^2, PHQ-9 score vs AUC0-24 | Eta^2, PHQ-9 score vs Cmax | Compound
0.033 | 0.114 | 0.011 | 0.025 | 0.002 | 0.036 | 0.034 | 0.001 | 0.000 | 0.001 | Nc1nc(NC2CC2)c2ncn([C@H]3C=C[C@@H](CO)C3)c2n1 [ABC, abacavir]
– | 0.084 | – | – | 0.021 | – | – | 0.002 | – | – | Nc1ccn([C@@H]2CS[C@H](CO)O2)c(=O)n1 [3TC, lamivudine]
0.020 | 0.011 | 0.007 | 0.000 | 0.011 | 0.009 | 0.033 | 0.001 | 0.001 | 0.001 | CC(C)OC(=O)OCOP(=O)(CO[C@H](C)Cn1cnc2c(N)ncnc21)OCOC(=O)OC(C)C [TDF, tenofovir disoproxil fumarate]
0.011 | 0.013 | 0.010 | 0.014 | 0.005 | 0.000 | 0.000 | 0.000 | 0.004 | 0.002 | Nc1nc(=O)n([C@@H]2CS[C@H](CO)O2)cc1F [FTC, emtricitabine]

Same assay, conditions: human, in vivo

Eta^2, PHQ-9 score vs Ctrough | Eta^2, Recreational drug use vs AUC0-24 | Eta^2, Recreational drug use vs Cmax | Eta^2, Recreational drug use vs Ctrough | Eta^2, Use of Efavirenz vs AUC0-24 | Eta^2, Use of Efavirenz vs Cmax | Eta^2, Use of Efavirenz vs Ctrough | Eta^2, Use of boosted PI vs AUC0-24 | Eta^2, Use of boosted PI vs Cmax | Eta^2, Use of boosted PI vs Ctrough | Compound
0.000 | 0.027 | 0.009 | 0.010 | 0.016 | 0.000 | 0.040 | 0.053 | 0.008 | 0.059 | Nc1nc(NC2CC2)c2ncn([C@H]3C=C[C@@H](CO)C3)c2n1 [ABC, abacavir]
0.015 | – | – | 0.014 | – | – | 0.041 | – | – | 0.039 | Nc1ccn([C@@H]2CS[C@H](CO)O2)c(=O)n1 [3TC, lamivudine]
0.002 | 0.007 | 0.000 | 0.012 | 0.003 | 0.000 | 0.005 | 0.004 | 0.002 | 0.004 | CC(C)OC(=O)OCOP(=O)(CO[C@H](C)Cn1cnc2c(N)ncnc21)OCOC(=O)OC(C)C [TDF, tenofovir disoproxil fumarate]
0.004 | 0.030 | 0.033 | 0.025 | 0.008 | 0.008 | 0.005 | 0.008 | 0.008 | 0.005 | Nc1nc(=O)n([C@@H]2CS[C@H](CO)O2)cc1F [FTC, emtricitabine]

Same assay, conditions: human, in vivo

Eta^2, eGFR vs AUC0-24 | Eta^2, eGFR vs Cmax | Eta^2, eGFR vs Ctrough | Compound
0.039 | 0.000 | 0.089 | Nc1nc(NC2CC2)c2ncn([C@H]3C=C[C@@H](CO)C3)c2n1 [ABC, abacavir]
– | – | 0.230 | Nc1ccn([C@@H]2CS[C@H](CO)O2)c(=O)n1 [3TC, lamivudine]
0.124 | 0.042 | 0.135 | CC(C)OC(=O)OCOP(=O)(CO[C@H](C)Cn1cnc2c(N)ncnc21)OCOC(=O)OC(C)C [TDF, tenofovir disoproxil fumarate]
– | 0.172 | 0.083 | Nc1nc(=O)n([C@@H]2CS[C@H](CO)O2)cc1F [FTC, emtricitabine]

Tested on: not given
Experiment: not given
Parameters: method as in PMID 16390539
Conditions: cited from earlier work

Compound | CNS penetration
CC(C)OC(=O)OCOP(=O)(CO[C@H](C)Cn1cnc2c(N)ncnc21)OCOC(=O)OC(C)C [TDF, tenofovir disoproxil fumarate] | low CNS penetration

Tested on: not listed separately
Experiment: Plasma NRTI concentrations and population PK parameters (POPPY study)
Conditions: PWH on cART, median (IQR), from population PK model
Protocol: as §1, with “methods.” for “methods. A decrease in the minimal objective function value (-2*log likelihood) of at least 3.84 units (corresponding to a p-value<0.05) was required to accept a model with an extra parameter. Once significant covariates were incorporated, a backwards elimination process was performed and biologically plausible covariates generating an increase in the objective function value of at least 10.83 (i.e. p<0.001) units were retained.”

Ctrough | Cmax | Compound
ABC: 2.6 (1.4, 4.6) μg/l | – | Nc1nc(NC2CC2)c2ncn([C@H]3C=C[C@@H](CO)C3)c2n1 [ABC, abacavir]
3TC: 12.4 (3.0, 126.7) μg/l | – | Nc1ccn([C@@H]2CS[C@H](CO)O2)c(=O)n1 [3TC, lamivudine]
TFV: 53.0 (44.0, 67.0) μg/l | TFV: 0.3 (0.2, 0.3) mg/l | C[C@H](Cn1cnc2c(N)ncnc21)OCP(=O)(O)O [TFV, tenofovir]
FTC: 75.0 (59.0, 99.0) μg/l | – | Nc1nc(=O)n([C@@H]2CS[C@H](CO)O2)cc1F [FTC, emtricitabine]

Same assay, conditions: human, po

AUC(0-t) [ng·h/mL] | Cmax [ng/mL] | Compound
12700 | 4200 | Nc1nc(NC2CC2)c2ncn([C@H]3C=C[C@@H](CO)C3)c2n1 [ABC, abacavir]
9900 | 2400 | Nc1ccn([C@@H]2CS[C@H](CO)O2)c(=O)n1 [3TC, lamivudine]
2700 | – | C[C@H](Cn1cnc2c(N)ncnc21)OCP(=O)(O)O [TFV, tenofovir]
10400 | 1100 | Nc1nc(=O)n([C@@H]2CS[C@H](CO)O2)cc1F [FTC, emtricitabine]

Tested on: cognitive function
Experiment: not given
Conditions: PWH switching from TDF to TAF; cited from earlier work

Compound | cognitive performances on switching from TDF to TAF
CC(C)OC(=O)[C@H](C)N[P@](=O)(CO[C@H](C)Cn1cnc2c(N)ncnc21)Oc1ccccc1 [TAF, tenofovir alafenamide] | no changes in cognitive performances

Same assay, conditions: cohort study; cited from earlier work

Compound | effect on cognitive performance
Nc1nc(NC2CC2)c2ncn([C@H]3C=C[C@@H](CO)C3)c2n1 [ABC, abacavir] | beneficial effect

Same assay, conditions: randomized controlled trial, PWH with HIV-associated dementia; cited from earlier work

Compound | cognitive function after ABC initiation
Nc1nc(NC2CC2)c2ncn([C@H]3C=C[C@@H](CO)C3)c2n1 [ABC, abacavir] | no improvement of cognitive function
